For experiment [1], the system named is vasoconstriction of rat thoracic aorta induced by U-46619. Nature of the experiment: Vasoconstriction inhibitory action (U-46619-induced constriction of thoracic aorta spiral specimens). Also on record: species or system long Evans rats. To be noted: 10 min, pH 7.4, minimum concentration at which inhibition rate was 50% or more, 10 ng/ml U-46619, drug applied 10 minutes, 37° C., read-out: Vasoconstriction Inhibitory Action MIC. On the procedure:
Male and female long Evans rats having body weights of 150-200 g were used in this example. After sacrificing the animals by decapitation, the thoracic aorta was removed, and the outer membrane was peeled off to obtain I2 spiral specimens roughly 2 cm in length. Blood vessel specimens were warmed to 37° C. and preserved in a Magnus tube containing 10 ml of a nutrient solution aerated with 95% oxygen+5% carbon dioxide gas. The nutrient solution contained 118.3 mmol of NaCl, 4.7 mmol of KCl, […] of CaCl, 1.2 mmol of MgSO4, 1.2 mmol of KH2 PO4, 25 mmol of NaCHO3, 11.1 mmol of D-glucose, 0.03 mmol of EDTA along with 1 μg/ml each of atropin, phentolamine, mepiramine, cyproheptadine, propranolol and indometacin, and was adjusted to a pH of 7.4. Vasoconstriction was measured using an isometric transducer (Harward UF-1 Transducer and Sekonic SS-250F Graph recorder). An equilibration time of 3 hours was provided after the blood vessels were installed on the Magnus device, and fresh nutrient solution was replaced every 30 minutes during that time. […] of U-46619, having TXA2 action (to reach roughly 75% of maximum constriction), was applied for 30 minutes to constrict the vessels. The maximum stable constriction during this time was taken to be the control constriction (C1). Next, the blood vessels were washed several times with nutrient solution to remove the drug. After allowing a recovery period of 30 minutes, the test drugs were applied at various concentrations for 10 minutes followed by again constricting the vessels by applying 10 ng/ml of U-46619 for 30 minutes. The maximum stable constriction during this time was taken to be the constriction of the test drugs (C2). The inhibition rates of vasoconstriction induced by the drugs and U-46619 were determined according to the following formula, and the minimum concentration at which the inhibition rate was 50% or more was determined as the minimum inhibitory concentration (MIC).
((C1-C2)/C1)×100=Inhibition rate (%)

Experiment [2] relates to platelet aggregation induced by U-46619 in human platelet-rich plasma (PRP). Nature of the experiment: Platelet aggregation inhibitory action (U-46619-induced, human platelet-rich plasma). Type of experiment: cell-based. To be noted: compounds added 1 minute before U-46619, turbidity. The method, then:
Human whole blood drawn from the median cubital vein was centrifuged for 10 minutes at 800 rpm, and the upper portion was collected as platelet-rich plasma (PRP). […] The size of the aggregates were measured with a platelet aggregate measuring instrument (Hematracer 1, Nikko Bioscience) as the change in turbidity. The compounds were added 1 minute before addition of U-46619, and the concentration which inhibits aggregation by 50% was calculated as the IC50 value.

In experiment [3] the target is T1, Thromboxane A2 Receptor (Oryctolagus cuniculus, UniProt Q6WQI8).
T1 sequence (Q6WQI8 1-233): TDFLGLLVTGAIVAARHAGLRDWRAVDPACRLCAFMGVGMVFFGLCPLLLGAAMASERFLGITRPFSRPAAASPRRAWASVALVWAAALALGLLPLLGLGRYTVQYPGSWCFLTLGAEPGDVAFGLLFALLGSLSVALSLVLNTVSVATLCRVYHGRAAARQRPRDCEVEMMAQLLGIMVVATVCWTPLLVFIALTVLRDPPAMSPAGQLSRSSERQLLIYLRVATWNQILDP
Nature of the experiment: Receptor binding experiment: Thromboxane A2 Receptor Binding Test ([3H]SQ29548, washed platelets). The conditions noted are these: rabbit washed platelets; [3H]SQ29548 3 nM; 60 minutes at 25° C.; read-out: Binding Inhibitory Action IC50 (converted). Also on record: species or system New Zealand White rabbits. The method, then:
Whole blood from New Zealand White rabbits was collected into a container containing ACD solution (1.175 g of sodium citrate, 0.685 g of citric acid, and 1 g of dextrose dissolved in 50 ml of distilled water) followed by centrifuging at room temperature for 10 minutes at 180 ×g to obtain platelet-rich plasma. Moreover, this platelet-rich plasma was further centrifuged at room temperature and 2800 ×g to result in sedimentation of the platelets. The platelets were resuspended in 50 mM Tris hydrochloric acid buffer solution (pH 7.2, containing […]) and again centrifuged at 4° C. for 15 minutes at 2800 ×g. This procedure was repeated twice to prepare the washed platelets, and adjusted to a final concentration of 10 mg/ml (wet weight). Tritium-labelled SQ29548 ([3H]SQ29548) was used for the TXA2 ligand. In an antagonism experiment, 20 μl of [3H]SQ29548 at a final concentration of 3 nM were added to 500 μl of a 10 mg/ml platelet suspension, together with adding 2.6 μl of the test drug dissolved in a suitable buffer. After incubating for 60 minutes at 25° C., the mixture was filtered over a glass filter using the Celherbster method, the filter was washed with 50 mM Tris hydrochloric acid buffer solution (3 ×4 ml), and radioactivity was measured with a scintillation counter to determine the amount of [3H]SQ29548 bound to the platelets. In addition, in a saturation test, 20 μl of [3H]SQ29548 were added to a final concentration of 0.1-50 nM followed by the addition of 2.6 μl of BM13505 at a final concentration of 1 μM in order to examine non-specific binding and carry out a binding experiment. The concentration of the test drug which inhibited binding of [3H]SQ29548 by 50% was determined as the IC50 value.

SMILES strings stand for the structures.

The values below come from patent US5496849A, “Sulfonic acid derivative and its pharmaceutical application” (Toray Industries, Inc., priority 1992, dated 1996).

Broadly, the IC50 is the concentration that inhibits the measured activity by half.

As to `O=C(O)c1cccc2c1O[C@H]1C[C@@H](O)[C@H](NS(=O)(=O)c3ccccc3)[C@@H]21` (racemic) [(39), (1RS, 2RS, 3aSR, 8bRS)-1-benzenesulfonamido-2-hydroxy-2,3,3a,8b-tetrahydro-1H-cyclopenta[b]benzofuran-5-carboxylic acid], the minimal effective concentration in experiment [1] came to 0.25 µg/mL.
As for `O=C(O)Cc1cccc2c1O[C@H]1C[C@@H](O)[C@H](NS(=O)(=O)c3ccccc3)[C@@H]21` (racemic) [(41), (1RS, 2RS, 3aSR, 8bRS)-1-benzenesulfonamido-2-hydroxy-2,3,3a,8b-tetrahydro-1H-cyclopenta[b]benzofuran-5-acetic acid], in experiment [1], the minimal effective concentration was 0.25 µg/mL. The concentration for half-maximal inhibition (IC50) is 1700 nM in experiment [2] and 2080 nM in experiment [3].
Turning to `O=C(O)CCc1cccc2c1O[C@H]1C[C@@H](O)[C@H](NS(=O)(=O)c3ccccc3)[C@@H]21` (racemic) [(43), (1RS, 2RS, 3aSR, 8bRS)-1-benzenesulfonamido-2-hydroxy-2,3,3a,8b-tetrahydro-1H-cyclopenta[b]benzofuran-5-propionic acid], the minimal effective concentration in experiment [1] was found to be 0.3 µg/mL. For the same molecule, the half-inhibitory concentration (IC50) in experiment [2] is 510 nM; in experiment [3], 322 nM.
Consider `O=C(O)CCCc1cccc2c1O[C@H]1C[C@@H](O)[C@H](NS(=O)(=O)c3ccccc3)[C@@H]21` (racemic) [(45), (1RS, 2RS, 3aSR, 8bRS)-1-benzenesulfonamido-2-hydroxy-2,3,3a,8b-tetrahydro-1H-cyclopenta[b]benzofuran-5-butyric acid], for which the values for the IC50 in experiment [2] and in experiment [3] were 4300 nM and 4790 nM, respectively.
For `COC(=O)COc1cccc2c1O[C@H]1C[C@@H](O)[C@H](NS(=O)(=O)c3ccccc3)[C@@H]21` (racemic) [(46), (1RS, 2RS, 3aSR, 8bRS)-1-benzenesulfonamido-2-hydroxy-2,3,3a,8b-tetrahydro-1H-cyclopenta[b]benzofuran-5-yloxyacetic acid methyl ester], the minimal effective concentration in experiment [1] came to 0.03 µg/mL. In addition, the 50% inhibitory concentration (IC50) in experiment [2] is 68 nM; in experiment [3] it was 23.1 nM.
On to `O=C(O)COc1cccc2c1O[C@H]1C[C@@H](O)[C@H](NS(=O)(=O)c3ccccc3)[C@@H]21` (racemic) [(47), (1RS, 2RS, 3aSR, 8bRS)-1-benzenesulfonamido-2-hydroxy-2,3,3a,8b-tetrahydro-1H-cyclopenta[b]benzofuran-5-yloxyacetic acid], for which the minimal effective concentration in experiment [1] is 0.025 µg/mL. Besides, the IC50 is 18 nM in experiment [2] and 7.4 nM in experiment [3].
Take `O=C(O)COc1cccc2c1O[C@H]1C[C@@H](O)[C@H](NS(=O)(=O)c3ccc(C(F)(F)F)cc3)[C@@H]21` (racemic) [(65), (1RS, 2RS, 3aSR, 8bRS)-1-(p-trifluoromethylbenzenesulfonamido)-2-hydroxy-2,3,3a,8b-tetrahydro-1H-cyclopenta [b]benzofuran-5-yloxyacetic acid]: the values for the IC50 in experiment [2] and in experiment [3] were 270 nM and 97.2 nM, respectively.
For `O=C(O)COc1cccc2c1O[C@H]1C[C@@H](O)[C@H](NS(=O)(=O)Cc3ccccc3)[C@@H]21` (racemic) [(74), (1RS, 2RS, 3aSR, 8bRS)-1-phenylmethanesulfonamido-2-hydroxy-2,3,3a,8b-tetrahydro-1H-cyclopenta[b]benzofuran-5-yloxyacetic acid] the same measures were 5300 nM and 858 nM.
The like results for `O=C(O)COc1cccc2c1O[C@H]1C[C@@H](O)[C@H](NS(=O)(=O)CCc3ccccc3)[C@@H]21` (racemic) [(76), (1RS, 2RS, 3aSR, 8bRS)-1-(2-phenylethanesulfonamido)-2-hydroxy-2,3,3a,8b-tetrahydro-1H-cyclopenta[b]benzofuran-5-yloxyacetic acid] were, in that order, 550 nM and 122 nM.
The like results for `O=C(O)COc1cccc2c1O[C@H]1C[C@@H](O)[C@H](NS(=O)(=O)c3ccc4ccccc4c3)[C@@H]21` (racemic) [(78), (1RS, 2RS, 3aSR, 8bRS)-1-(2-naphthalenesulfonamido)-2-hydroxy-2,3,3a,8b-tetrahydro-1H-cyclopenta[b]benzofuran-5-yloxyacetic acid] were, in that order, 51 nM and 2.09 nM.
On to `CCCCS(=O)(=O)N[C@@H]1[C@H]2c3cccc(OCC(=O)O)c3O[C@H]2C[C@H]1O` (racemic) [(82), (1RS, 2RS, 3aSR, 8bRS)-1-butanesulfonamido-2-hydroxy-2,3,3a,8b-tetrahydro-1H-cyclopenta[b]benzofuran-5-yloxyacetic acid], for which the IC50 in experiment [2] was 1000 nM; in experiment [3] it was 1220 nM.
The like results for `CCCCCCCCS(=O)(=O)N[C@@H]1[C@H]2c3cccc(OCC(=O)O)c3O[C@H]2C[C@H]1O` (racemic) [(84), (1RS, 2RS, 3aSR, 8bRS)-1-octanesulfonamido-2-hydroxy-2,3,3a,8b-tetrahydro-1H-cyclopenta[b]benzofuran-5-yloxyacetic acid] were, in that order, 7300 nM and 1220 nM.
The like results for `COC(=O)COc1cccc2c1O[C@H]1C[C@@H](O)[C@H](CNS(=O)(=O)c3ccccc3)[C@@H]21` (racemic) [(96), (1SR, 2RS, 3aSR, 8bSR)-1-((benzenesulfonamido)methyl)-2-hydroxy-2,3,3a,8b-tetrahydro-1H-cyclopenta[b]benzofuran-5-yloxyacetic acid methyl ester] were, in that order, 670 nM and 415 nM.
Regarding `Cc1ccc(S(=O)(=O)O[C@H]2CC[C@@H]3Oc4c(OCC(=O)O)cccc4[C@@H]32)cc1` (racemic) [(123), (1SR, 3aSR, 8bSR)-1-((p-tolyl)sulfonyloxy)-2,3,3a,8b-tetrahydro-1H-cyclopenta[b]benzofuran-5-yloxyacetic acid], in experiment [2], the concentration for half-maximal inhibition (IC50) was 93 nM.
Still for that read-out and setting: then `O=C(O)COc1cccc2c1O[C@H]1CC[C@H](OS(=O)(=O)c3ccc(Cl)cc3)[C@@H]21` (racemic) [(125), (1SR, 3aSR, 8bSR)-1-((p-chlorophenyl)sulfonyloxy)-2,3,3a,8b-tetrahydro-1H-cyclopenta[b]benzofuran-5-yloxyacetic acid], with 94 nM.
Same read-out and setting: then `O=C(O)COc1cccc2c1O[C@H]1CC[C@H](OS(=O)(=O)c3ccc(F)cc3)[C@@H]21` (racemic) [(127), (1SR, 3aSR, 8bSR)-1-((p-fluorophenyl)sulfonyloxy)-2,3,3a,8b-tetrahydro-1H-cyclopenta[b]benzofuran-5-yloxyacetic acid], with 100 nM.
